What was measured:
[1] = target: T1, Protein kinase C beta type (Homo sapiens, UniProt P05771); assay: Inhibition of human recombinant PKCbeta2
Target sequence in this assay (P05771 whole entry): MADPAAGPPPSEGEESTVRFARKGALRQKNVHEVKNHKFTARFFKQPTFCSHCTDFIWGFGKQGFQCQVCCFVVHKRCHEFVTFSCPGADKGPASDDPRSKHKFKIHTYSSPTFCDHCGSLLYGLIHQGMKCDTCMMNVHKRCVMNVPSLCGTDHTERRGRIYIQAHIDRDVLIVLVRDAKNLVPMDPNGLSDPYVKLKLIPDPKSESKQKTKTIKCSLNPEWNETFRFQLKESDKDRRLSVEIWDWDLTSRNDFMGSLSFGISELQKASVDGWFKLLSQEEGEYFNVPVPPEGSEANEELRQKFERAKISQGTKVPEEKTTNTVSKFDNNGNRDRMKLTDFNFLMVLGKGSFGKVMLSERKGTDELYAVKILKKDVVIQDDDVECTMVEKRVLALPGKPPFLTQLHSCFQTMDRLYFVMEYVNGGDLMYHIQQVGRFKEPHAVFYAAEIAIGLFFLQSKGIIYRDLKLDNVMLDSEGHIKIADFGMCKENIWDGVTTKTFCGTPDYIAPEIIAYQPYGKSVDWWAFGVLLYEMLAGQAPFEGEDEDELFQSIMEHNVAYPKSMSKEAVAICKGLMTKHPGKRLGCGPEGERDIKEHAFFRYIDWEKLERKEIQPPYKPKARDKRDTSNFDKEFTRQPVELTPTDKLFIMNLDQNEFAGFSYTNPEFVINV

[2] = target: Insulin receptor (Homo sapiens) (UniProt P06213); assay: Residual activity of human IR at 1 uM relative to control
[3] = target: Tyrosine-protein kinase receptor UFO (Homo sapiens) (UniProt P30530); assay: Residual activity of human Axl at 1 uM relative to control
Saccharomyces cerevisiae = assay: Residual activity of yeast CK1 at 1 uM relative to control
[4] = target: Fibroblast growth factor receptor 3 (Homo sapiens) (UniProt P22607); assay: Residual activity of human FGFR3 at 1 uM relative to control
[5] = target: Insulin-like growth factor 1 receptor (Homo sapiens) (UniProt P08069); assay: Residual activity of human IGF1R at 1 uM relative to control
Chain of Insulin-like growth factor 1 receptor (Homo sapiens) (P08069 31-736 limits assumed): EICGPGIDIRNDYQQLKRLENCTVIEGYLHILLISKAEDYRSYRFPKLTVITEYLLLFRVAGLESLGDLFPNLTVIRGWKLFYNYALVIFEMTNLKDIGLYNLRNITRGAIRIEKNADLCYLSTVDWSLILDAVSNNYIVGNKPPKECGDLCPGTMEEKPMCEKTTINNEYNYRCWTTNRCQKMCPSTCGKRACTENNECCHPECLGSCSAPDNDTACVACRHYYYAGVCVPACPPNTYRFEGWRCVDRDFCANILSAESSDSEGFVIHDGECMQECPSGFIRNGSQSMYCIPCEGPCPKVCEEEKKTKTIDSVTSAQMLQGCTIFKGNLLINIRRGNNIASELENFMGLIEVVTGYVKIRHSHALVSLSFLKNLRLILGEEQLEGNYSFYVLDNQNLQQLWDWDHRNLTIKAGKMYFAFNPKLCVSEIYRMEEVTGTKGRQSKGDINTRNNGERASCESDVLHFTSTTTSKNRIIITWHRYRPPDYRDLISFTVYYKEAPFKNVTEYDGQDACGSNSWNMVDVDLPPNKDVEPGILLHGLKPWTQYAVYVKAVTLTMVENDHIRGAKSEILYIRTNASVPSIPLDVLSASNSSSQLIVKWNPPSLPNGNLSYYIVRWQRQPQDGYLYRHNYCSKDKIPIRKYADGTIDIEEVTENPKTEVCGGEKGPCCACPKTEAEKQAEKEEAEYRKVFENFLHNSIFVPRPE
Chain of Insulin-like growth factor 1 receptor (Homo sapiens) (P08069 741-1367 limits assumed): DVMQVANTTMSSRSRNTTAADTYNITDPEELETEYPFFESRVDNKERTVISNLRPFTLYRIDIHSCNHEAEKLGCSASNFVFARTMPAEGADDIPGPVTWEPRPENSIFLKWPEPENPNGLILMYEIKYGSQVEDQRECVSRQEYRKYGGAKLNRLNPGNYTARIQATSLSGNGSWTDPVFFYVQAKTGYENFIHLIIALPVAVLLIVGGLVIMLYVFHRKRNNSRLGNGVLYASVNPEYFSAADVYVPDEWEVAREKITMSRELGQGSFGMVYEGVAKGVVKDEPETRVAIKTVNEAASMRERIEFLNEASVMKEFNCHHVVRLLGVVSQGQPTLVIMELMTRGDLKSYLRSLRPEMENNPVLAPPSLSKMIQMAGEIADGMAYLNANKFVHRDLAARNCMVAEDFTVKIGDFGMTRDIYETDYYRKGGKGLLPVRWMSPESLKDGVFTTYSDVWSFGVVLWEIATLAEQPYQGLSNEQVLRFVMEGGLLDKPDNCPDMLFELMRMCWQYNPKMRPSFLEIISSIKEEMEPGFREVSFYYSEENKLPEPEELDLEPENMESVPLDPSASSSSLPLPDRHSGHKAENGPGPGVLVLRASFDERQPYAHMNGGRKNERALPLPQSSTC

[6] = target: Protein kinase C eta type (Homo sapiens) (UniProt P24723); assay: Residual activity of human PKCeta at 1 uM relative to control
Homo sapiens [7] = species: Homo sapiens; assay: Residual activity of human PKBgamma at 1 uM relative to control
[8] = target: Protein kinase C alpha type (Homo sapiens) (UniProt P17252); assay: Residual activity of human PKCalpha at 1 uM relative to control
[9] = target: T1, Protein kinase C beta type; assay: Residual activity of human PKCbeta2 at 1 uM relative to control
[10] = target: Tyrosine-protein kinase ABL1 (Homo sapiens) (UniProt P00519); assay: Residual activity of human Abl kinase at 1 uM relative to control
Homo sapiens [11] = species: Homo sapiens; assay: Residual activity of human PAR1B-alpha at 1 uM relative to control
Homo sapiens [12] = species: Homo sapiens; assay: Residual activity of human CDK2/Cyclin A at 1 uM relative to control
Homo sapiens [13] = species: Homo sapiens; assay: Residual activity of human CDK6/Cyclin D at 1 uM relative to control
[14] = Inhibition of MEK1 at 1 uM relative to control; values are per cent of control; conditions: Homo sapiens
[15] = target: Casein kinase I isoform delta (Homo sapiens) (UniProt P48730); assay: Inhibition of CK1delta at 1 uM relative to control; values are per cent of control
[16] = target: Ribosomal protein S6 kinase alpha-1 (Rattus norvegicus) (UniProt Q63531); assay: Inhibition of rat Rsk1 at 1 uM relative to control; values are per cent of control
Chain of Ribosomal protein S6 kinase alpha-1 (Rattus norvegicus) (Q63531 whole entry): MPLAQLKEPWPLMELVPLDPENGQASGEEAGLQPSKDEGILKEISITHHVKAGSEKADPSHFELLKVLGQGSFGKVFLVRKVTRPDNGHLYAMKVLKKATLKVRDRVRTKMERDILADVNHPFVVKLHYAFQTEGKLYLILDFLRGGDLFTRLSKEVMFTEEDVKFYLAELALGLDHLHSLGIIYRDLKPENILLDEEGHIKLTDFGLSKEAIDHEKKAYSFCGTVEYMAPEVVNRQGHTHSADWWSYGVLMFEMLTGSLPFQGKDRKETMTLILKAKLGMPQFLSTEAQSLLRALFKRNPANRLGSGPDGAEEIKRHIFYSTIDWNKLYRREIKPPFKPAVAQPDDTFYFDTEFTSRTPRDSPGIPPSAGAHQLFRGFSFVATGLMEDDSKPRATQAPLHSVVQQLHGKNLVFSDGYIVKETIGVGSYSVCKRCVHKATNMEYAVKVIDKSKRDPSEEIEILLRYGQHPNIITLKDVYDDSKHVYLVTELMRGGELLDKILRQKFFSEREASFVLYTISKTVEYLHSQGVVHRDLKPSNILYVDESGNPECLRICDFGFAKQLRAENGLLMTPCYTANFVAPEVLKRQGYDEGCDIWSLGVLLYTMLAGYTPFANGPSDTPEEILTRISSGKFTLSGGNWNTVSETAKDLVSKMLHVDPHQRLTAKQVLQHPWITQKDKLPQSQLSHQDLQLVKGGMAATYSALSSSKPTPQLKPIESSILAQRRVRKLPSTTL

[17] = target: Tyrosine-protein kinase Blk (Mus musculus) (UniProt P16277); assay: Inhibition of mouse Blk at 1 uM relative to control; values are per cent of control
[18] = target: Tyrosine-protein kinase Fes/Fps (Homo sapiens) (UniProt P07332); assay: Inhibition of human Fes at 1 uM relative to control; values are per cent of control
[19] = target: Tyrosine-protein kinase Lck (Homo sapiens) (UniProt P06239); assay: Inhibition of human Lck at 1 uM relative to control; values are per cent of control
[20] = target: Tyrosine-protein kinase Lyn (Mus musculus) (UniProt P25911); assay: Inhibition of mouse Lyn at 1 uM relative to control; values are per cent of control
Chain of Tyrosine-protein kinase Lyn (Mus musculus) (P25911 whole entry): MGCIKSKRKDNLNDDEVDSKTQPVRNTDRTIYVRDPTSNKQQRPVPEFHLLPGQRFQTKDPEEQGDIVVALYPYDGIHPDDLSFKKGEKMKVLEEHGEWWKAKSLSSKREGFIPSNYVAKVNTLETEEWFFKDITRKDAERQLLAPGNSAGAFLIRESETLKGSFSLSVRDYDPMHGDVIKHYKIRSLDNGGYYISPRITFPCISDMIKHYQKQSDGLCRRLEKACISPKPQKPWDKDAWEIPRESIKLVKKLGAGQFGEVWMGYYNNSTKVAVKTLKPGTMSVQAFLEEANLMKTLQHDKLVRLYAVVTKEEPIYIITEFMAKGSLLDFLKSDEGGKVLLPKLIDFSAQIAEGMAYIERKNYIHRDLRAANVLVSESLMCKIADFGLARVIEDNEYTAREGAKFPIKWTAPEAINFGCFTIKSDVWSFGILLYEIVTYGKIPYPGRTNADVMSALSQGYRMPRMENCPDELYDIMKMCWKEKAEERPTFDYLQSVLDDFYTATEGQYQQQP

[21] = target: Mitogen-activated protein kinase 10 (Homo sapiens) (UniProt P53779); assay: Inhibition of human JNK3 at 1 uM relative to control; values are per cent of control
Chain of Mitogen-activated protein kinase 10 (Homo sapiens) (P53779 whole entry): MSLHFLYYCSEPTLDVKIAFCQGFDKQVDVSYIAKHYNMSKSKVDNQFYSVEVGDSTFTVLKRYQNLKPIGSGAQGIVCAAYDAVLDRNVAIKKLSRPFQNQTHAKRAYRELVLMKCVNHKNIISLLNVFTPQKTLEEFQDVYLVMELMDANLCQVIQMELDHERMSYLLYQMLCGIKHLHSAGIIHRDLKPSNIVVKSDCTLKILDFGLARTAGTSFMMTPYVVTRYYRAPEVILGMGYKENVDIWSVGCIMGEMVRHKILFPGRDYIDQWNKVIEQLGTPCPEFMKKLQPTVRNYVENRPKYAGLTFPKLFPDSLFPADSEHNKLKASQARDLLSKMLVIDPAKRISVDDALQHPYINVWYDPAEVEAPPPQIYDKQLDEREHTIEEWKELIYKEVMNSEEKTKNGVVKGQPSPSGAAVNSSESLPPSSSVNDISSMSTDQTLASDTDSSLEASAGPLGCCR

[22] = target: T2, Dual specificity mitogen-activated protein kinase kinase 6 (Homo sapiens) (UniProt P52564); assay: Inhibition of human MKK6 at 1 uM relative to control; values are per cent of control
T2 sequence (whole entry): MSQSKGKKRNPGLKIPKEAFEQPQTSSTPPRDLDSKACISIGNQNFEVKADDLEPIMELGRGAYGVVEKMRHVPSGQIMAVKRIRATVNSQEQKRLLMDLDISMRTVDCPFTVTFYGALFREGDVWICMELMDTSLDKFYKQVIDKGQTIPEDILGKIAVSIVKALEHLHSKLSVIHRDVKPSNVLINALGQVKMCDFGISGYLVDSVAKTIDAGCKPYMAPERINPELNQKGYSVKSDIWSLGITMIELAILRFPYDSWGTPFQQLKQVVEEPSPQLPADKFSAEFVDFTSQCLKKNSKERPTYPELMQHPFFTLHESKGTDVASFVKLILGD

[23] = target: Ribosomal protein S6 kinase alpha-5 (Homo sapiens, UniProt O75582); assay: Inhibition of human MSK1 at 1 uM relative to control; values are per cent of control
[24] = target: Ribosomal protein S6 kinase alpha-2 (Homo sapiens) (UniProt Q15349); assay: Inhibition of human Rsk2 at 1 uM relative to control; values are per cent of control
Mus musculus = species: Mus musculus; assay: Inhibition of mouse MAPK2 at 1 uM relative to control; values are per cent of control
[25] = target: Cyclin-dependent kinase 5/CDK5 activator 1 (Homo sapiens) (UniProt Q00535+Q15078); assay: Inhibition of human CDK5/p35 at 1 uM relative to control; values are per cent of control
[26] = target: Platelet-derived growth factor receptor beta (Homo sapiens) (UniProt P09619); assay: Inhibition of human PDGFRbeta at 1 uM relative to control; values are per cent of control
[27] = target: Platelet-derived growth factor receptor alpha (Homo sapiens) (UniProt P16234); assay: Inhibition of human PDGFRalpha at 1 uM relative to control; values are per cent of control
[28] = target: Mitogen-activated protein kinase 9 (Homo sapiens) (UniProt P45984); assay: Inhibition of human JNK2-alpha-2 at 1 uM relative to control; values are per cent of control
Chain of Mitogen-activated protein kinase 9 (Homo sapiens) (P45984 whole entry, looked up): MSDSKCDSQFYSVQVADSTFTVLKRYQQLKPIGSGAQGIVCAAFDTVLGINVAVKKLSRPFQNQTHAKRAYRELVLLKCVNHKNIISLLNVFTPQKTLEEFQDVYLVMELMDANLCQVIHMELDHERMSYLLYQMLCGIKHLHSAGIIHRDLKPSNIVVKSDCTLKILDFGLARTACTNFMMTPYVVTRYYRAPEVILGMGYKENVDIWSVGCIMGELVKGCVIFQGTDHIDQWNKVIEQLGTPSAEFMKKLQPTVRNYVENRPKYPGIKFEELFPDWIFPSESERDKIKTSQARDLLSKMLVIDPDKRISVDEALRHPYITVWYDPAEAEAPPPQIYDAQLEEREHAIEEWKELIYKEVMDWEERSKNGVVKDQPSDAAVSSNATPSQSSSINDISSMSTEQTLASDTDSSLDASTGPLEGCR

Chain of Tyrosine-protein kinase receptor UFO (Homo sapiens) (P30530 whole entry): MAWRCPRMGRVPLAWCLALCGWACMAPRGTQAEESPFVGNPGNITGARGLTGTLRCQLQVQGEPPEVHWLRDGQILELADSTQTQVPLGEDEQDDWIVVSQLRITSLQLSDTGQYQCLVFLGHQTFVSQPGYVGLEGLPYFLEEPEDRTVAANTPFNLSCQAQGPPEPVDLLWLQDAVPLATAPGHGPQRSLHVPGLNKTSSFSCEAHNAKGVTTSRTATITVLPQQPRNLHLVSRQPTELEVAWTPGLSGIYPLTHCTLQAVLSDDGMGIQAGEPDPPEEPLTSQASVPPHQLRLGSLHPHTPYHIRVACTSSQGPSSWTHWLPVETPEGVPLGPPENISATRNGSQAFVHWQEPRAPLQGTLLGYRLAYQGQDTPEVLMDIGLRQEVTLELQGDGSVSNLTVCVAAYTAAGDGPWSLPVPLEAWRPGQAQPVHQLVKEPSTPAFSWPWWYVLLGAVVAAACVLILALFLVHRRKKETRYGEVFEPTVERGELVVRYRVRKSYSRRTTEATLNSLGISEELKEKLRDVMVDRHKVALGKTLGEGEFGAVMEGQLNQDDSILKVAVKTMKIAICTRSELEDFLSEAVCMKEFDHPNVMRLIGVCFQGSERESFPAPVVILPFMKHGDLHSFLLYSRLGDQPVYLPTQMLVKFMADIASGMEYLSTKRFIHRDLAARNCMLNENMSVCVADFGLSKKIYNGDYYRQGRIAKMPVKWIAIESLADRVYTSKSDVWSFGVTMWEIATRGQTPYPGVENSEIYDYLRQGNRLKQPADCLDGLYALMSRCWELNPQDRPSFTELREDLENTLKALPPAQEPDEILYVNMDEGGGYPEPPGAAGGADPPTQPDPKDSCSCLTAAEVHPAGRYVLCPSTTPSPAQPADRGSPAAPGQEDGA

Row | IC50 [1] [nM] | residual activity [2] [%] | residual activity [3] [%] | residual activity [4] [%] | residual activity [5] [%] | residual activity [6] [%] | residual activity (Homo sapiens [7]) [%] | residual activity [8] [%] | residual activity [9] [%] | residual activity [10] [%] | residual activity (Homo sapiens [11]) [%] | residual activity (Homo sapiens [12]) [%] | residual activity (Homo sapiens [13]) [%] | residual activity [15] [%] | residual activity [16] [%] | residual activity [17] [%] | residual activity [18] [%] | residual activity [19] [%] | residual activity [20] [%] | residual activity [21] [%] | further results | SMILES
1 | 2400 | 102 | 104 | 84 | 37 | 117 | 106 | 74 | 68 | 98 | 100 | 80 | 74 | 111 | 7 | 70 | 133 | 100 | 102 | 107 | residual activity (Saccharomyces cerevisiae): 98%; residual activity [14]: 93%; residual activity [22]: 86%; residual activity [23]: 58%; residual activity [24]: 10%; residual activity (Mus musculus): 95%; residual activity [25]: 105%; residual activity [26]: 101%; residual activity [27]: 119%; residual activity [28]: 106% | CN(C)c1cc2cc(n1)CCCn1cc(c3ccccc31)C1=C(C(=O)NC1=O)c1cn(c3ccccc13)CCC2
2 | 1200 | 110 | 106 | 114 | 42 | 121 | 103 | 82 | 74 | 107 | 96 | 88 | 82 | 112 | 5 | 74 | 139 | 99 | 99 | 103 | residual activity (Saccharomyces cerevisiae): 99%; residual activity [14]: 91%; residual activity [22]: 91%; residual activity [23]: 38%; residual activity [24]: 12%; residual activity (Mus musculus): 103%; residual activity [25]: 99%; residual activity [26]: 103%; residual activity [27]: 126%; residual activity [28]: 114% | O=C1NC(=O)C2=C1c1cn(c3ccccc13)CCCc1cc(nc(N3CCCC3)c1)CCCn1cc2c2ccccc21
3 | 2200 | 87 | 100 | 117 | 106 | 90 | 105 | 83 | 77 | 108 | 101 | 88 | 92 | 109 | 67 | 91 | 130 | 90 | 104 | 102 | residual activity [22]: 85%; residual activity [23]: 104%; residual activity [24]: 63%; residual activity (Mus musculus): 99%; residual activity [25]: 104%; residual activity [26]: 105%; residual activity [27]: 113%; residual activity [28]: 110% | O=C1NC(=O)C2=C1c1cn(c3ccccc13)CCCc1ccc(c(N3CCCC3)n1)CCCn1cc2c2ccccc21
4 | 1400 | 91 | 97 | 75 | 84 | 104 | 93 | 68 | 64 | 105 | 94 | 120 | 86 | 107 | 37 | 109 | 107 | 96 | 90 | 96 | residual activity (Saccharomyces cerevisiae): 91%; residual activity [14]: 76%; residual activity [22]: 102%; residual activity [23]: 36%; residual activity [24]: 32%; residual activity (Mus musculus): 95%; residual activity [25]: 99%; residual activity [26]: 147%; residual activity [27]: 107%; residual activity [28]: 96% | CN(C)c1nc2ccc1CCCn1cc(c3ccccc31)C1=C(C(=O)NC1=O)c1cn(c3ccccc13)CC2

Source: ChEMBL document CHEMBL1139192, “Novel bis(indolyl)maleimide pyridinophanes that are potent, selective inhibitors of glycogen synthase kinase-3” (Bioorg Med Chem Lett, 2007)
